The text below walks through data of ChEMBL document CHEMBL1201862, “PubChem BioAssay data set” (2004).

In general, GI50 refers to the concentration that inhibits growth by half.

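Five concentrations, 48 hours, 96-well plates. Abbreviation: GI50, concentration required for 50% inhibition of growth.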 Activity calls are given as the source filed them. No stated cut-off is given here; in the data, active = GI50 up to about 1.1 µM and inactive = higher.

What all share (test): DTP human tumour cell line panel, 48 h
Assay [1] deals with KM12.
Assay [2] concerns NCI-H460.
Assay [3] relates to UACC-257.
Assay [4] has as its system CCRF-CEM.
Assay [5] has as its system OVCAR-5.
The test system of assay [6] is HCT-116.
Assay [7] relates to K562.
In assay [8] the test system is SF-295.
Assay [9] relates to BT-549.
The test system of assay [10] is UO-31.
In assay [11] the test system is SR.
Assay [12] relates to SNB-19.
For assay [13], the system named is DU-145.
For assay [14], the system named is SK-OV-3.
Assay [15] concerns LOX IMVI.
Assay [16] relates to SF-268.
The test system of assay [17] is T47D.
Assay [18] relates to MCF7.
Assay [19] has as its system SN12C.
The test system of assay [20] is NCI-H23.

Take `COc1ccc(/C=C/c2nsc(/C=C/c3ccc(OC)cc3)n2)cc1`: the GI50 in assay [1] was > 100 µM (inactive); in assay [2], 24.9 µM (inactive); in assay [3], 41.4 µM (inactive); in assay [4], 19.3 µM (inactive); in [5] it was > 100 µM (inactive); in assay [6], > 100 µM (inactive). Further, the GI50 in [7] is 33.3 µM (inactive); in [8], > 100 µM (inactive); in assay [9] it was > 100 µM (inactive); in assay [10], > 100 µM (inactive); in [11], 27.3 µM (inactive); in assay [12], > 100 µM (inactive). Besides, the GI50 in assay [13] is > 100 µM (inactive); in assay [14] it was > 100 µM (inactive); in [15], 55.1 µM (inactive); in assay [16] it was > 100 µM (inactive); in [17], 38 µM (inactive); in assay [18] it was > 100 µM (inactive).

Consider `CC1(O)CC23CC1CCC2(C)C12CCCC(C)(C(=O)O1)C2CC3O` (stereo unspecified), for which the GI50 in assay [1], in assay [2], in assay [3], in assay [19], in [4] and in assay [20] was > 100 µM (inactive) throughout. The GI50 in [5], in [6], in assay [7], in [8], in assay [9] and in assay [10] was > 100 µM (inactive) throughout. Besides, the GI50 in assay [11], in [12], in [13], in assay [14], in assay [15] and in [16] was > 100 µM (inactive) in each case. Besides, the GI50 in assay [17] and in assay [18] was > 100 µM (inactive) each time.

In the case of `Cc1c(CCCl)c(Cl)n2c(nc3ccccc32)c1C#N`, the GI50 is 1.19 µM (inactive) in assay [1]; 0.456 µM (active) in [2]; 1.44 µM (inactive) in assay [3]; 0.423 µM (active) in assay [19]; 0.045 µM (active) in assay [4]; 0.904 µM (active) in [20]. Moreover, the GI50 in assay [5] was 1.63 µM (inactive); in [6], 0.229 µM (active); in assay [7] it was 0.321 µM (active); in assay [8] it was 1.31 µM (inactive); in assay [9], 2.21 µM (inactive); in [10], 1.28 µM (inactive). Besides, the GI50 in [11] is 0.112 µM (active); in assay [12], 1.89 µM (inactive); in [13], 1.69 µM (inactive); in assay [14] it was 4.9 µM (inactive); in assay [15], 0.281 µM (active); in assay [16], 1.49 µM (inactive). The GI50 in [17] is 1.38 µM (inactive); in assay [18], 0.653 µM (active).

`Cc1ccc2c(c1)-c1c(C#N)c(N)nc(-c3ccccc3)c1CCS2(=O)=O`: the GI50 in assay [1] was 4.85 µM (inactive); in [2], 4.17 µM (inactive); in assay [3], 6.31 µM (inactive); in assay [19] it was 17.7 µM (inactive); in assay [4] it was 1.23 µM (inactive); in [20], 8.65 µM (inactive). Moreover, the GI50 was 10.1 µM (inactive) in assay [5]; 6.38 µM (inactive) in assay [6]; 1.97 µM (inactive) in assay [7]; 5.47 µM (inactive) in assay [8]; 12.1 µM (inactive) in assay [9]; 13.4 µM (inactive) in assay [10]. Also, the GI50 in assay [11] is 0.834 µM (active); in assay [12] it was 4.16 µM (inactive); in [13] it was 6.19 µM (inactive); in assay [14] it was 5.53 µM (inactive); in [15] it was 12.6 µM (inactive); in assay [16] it was 22.9 µM (inactive). The GI50 in assay [17] is 15.1 µM (inactive); in assay [18], 4.48 µM (inactive).

Regarding `CCN1C(Cl)=NS(=O)(=O)c2ccccc21`, the GI50 in assay [1] was 51.8 µM (inactive); in assay [2], 22.8 µM (inactive); in assay [3], 28 µM (inactive); in [19], 18.6 µM (inactive); in [4] it was 3.9 µM (inactive); in assay [20], 23.6 µM (inactive). Besides, the GI50 in assay [5] is 26.4 µM (inactive); in [6], 23.8 µM (inactive); in assay [7] it was 7.83 µM (inactive); in assay [8], > 100 µM (inactive); in [9], 17.5 µM (inactive); in [10] it was 16.9 µM (inactive). Also, the GI50 is 34.1 µM (inactive) in assay [11]; 35.5 µM (inactive) in assay [12]; 36.7 µM (inactive) in [13]; 71.6 µM (inactive) in [14]; 15.7 µM (inactive) in assay [15]; 36.6 µM (inactive) in assay [16]. Further, the GI50 in [17] was 30 µM (inactive); in assay [18], 27.5 µM (inactive).

In the case of `OC(Cc1cccc2ccccc12)CN1CCC(c2ccccc2)CC1` (stereo unspecified), the GI50 in assay [1] is 14.8 µM (inactive); in assay [2], 13.9 µM (inactive); in assay [3], 3.72 µM (inactive); in [19], 16.5 µM (inactive); in [4], 18.5 µM (inactive); in assay [20], 15.3 µM (inactive). In addition, the GI50 is 13.7 µM (inactive) in [5]; 13.2 µM (inactive) in [6]; 12.5 µM (inactive) in assay [7]; 13.2 µM (inactive) in [8]; 16.8 µM (inactive) in assay [9]; 0.0241 µM (active) in assay [10]. Moreover, the GI50 was 10.8 µM (inactive) in assay [11]; 13 µM (inactive) in assay [12]; 14.9 µM (inactive) in [13]; 17.5 µM (inactive) in [14]; 15.5 µM (inactive) in assay [15]; 14.4 µM (inactive) in assay [16]. Also, the GI50 in [17] was 14.3 µM (inactive); in [18] it was 17.3 µM (inactive).

In the case of `Cc1cc2c(cc1Cl)SC(NNCCO)=NS2(=O)=O`, the GI50 in [1], in assay [2], in [3], in [4], in assay [20] and in assay [6] was > 100 µM (inactive) each time. Besides, the GI50 in assay [7] was 56.2 µM (inactive); in [8] it was > 100 µM (inactive); in [9], > 100 µM (inactive); in assay [10] it was > 100 µM (inactive); in assay [11], > 100 µM (inactive); in assay [12], > 100 µM (inactive). For the same compound, the GI50 in assay [13], in assay [14], in assay [15], in [16], in assay [17] and in [18] was > 100 µM (inactive) each time.

Turning to `COc1cc(/C=C/C(=O)c2ccc(NS(=O)(=O)c3cc([N+](=O)[O-])ccc3C)cc2)cc(OC)c1OC`, the GI50 in assay [1] is 2.62 µM (inactive); in assay [3], 7.53 µM (inactive); in assay [19], 1.87 µM (inactive); in [4], 2.2 µM (inactive); in assay [20], 3.05 µM (inactive); in [5], 4.37 µM (inactive). Also, the GI50 in assay [6] was 2.38 µM (inactive); in assay [7], 2.88 µM (inactive); in assay [8], 4.61 µM (inactive); in assay [9] it was 4.27 µM (inactive); in assay [10], 5.82 µM (inactive); in [11] it was 1.82 µM (inactive). The GI50 in [12] is 3.85 µM (inactive); in assay [13], 3.13 µM (inactive); in assay [14], 4.01 µM (inactive); in assay [15] it was 3.29 µM (inactive); in assay [17] it was 12.1 µM (inactive); in [18] it was 2.77 µM (inactive).

As to `CO[P@]1(=O)O[C@@H](c2ccccc2)[C@H](O)[C@@]1(O)c1ccccc1`, the GI50 in [1], in assay [2], in [3], in assay [19], in assay [4] and in [20] was > 100 µM (inactive) in each case. The GI50 in [5], in assay [6], in assay [7], in assay [8], in assay [9] and in [10] was > 100 µM (inactive) throughout. For the same compound, the GI50 in [11], in assay [12], in assay [13], in assay [14], in [15] and in assay [17] was > 100 µM (inactive) in each case. In addition, the GI50 in [18] was > 100 µM (inactive).

Take `C=C1C2CCC3C4(C)CCCC(C)(C(=O)O)C4CCC3(C2)C1OC(=O)/C(C)=C/C` (stereo unspecified): the GI50 was 17.3 µM (inactive) in assay [1]; 34.6 µM (inactive) in assay [2]; 39.7 µM (inactive) in [3]; 23 µM (inactive) in [19]; 53.2 µM (inactive) in [4]; 36.8 µM (inactive) in [20]. In addition, the GI50 in assay [5] is 28.4 µM (inactive); in assay [6] it was 38.5 µM (inactive); in assay [8] it was 20.3 µM (inactive); in [9], 41.8 µM (inactive); in assay [10], 21 µM (inactive); in assay [11] it was 2.98 µM (inactive). Besides, the GI50 in assay [13] was 42.3 µM (inactive); in assay [14], 27.5 µM (inactive); in [15] it was 34.5 µM (inactive); in assay [16], 38.7 µM (inactive); in assay [17], 43 µM (inactive); in [18] it was 32.7 µM (inactive).
